In PubChem BioAssay (NCI):
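Protocol summary: plate cells (96-well), add compound at 5 concentrations, incubate 48 h, interpolate endpoints linearly. At the GI50, growth is halved. The concentration for full growth arrest is given as TGI.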

Key:
Assay in all cases: NCI tumour cell line growth inhibition, 48 h
BT-549 breast = tested on: BT-549 breast
K-562 leukemia = tested on: K-562 leukemia
OVCAR-8 ovarian = tested on: OVCAR-8 ovarian
SK-MEL-2 melanoma = tested on: SK-MEL-2 melanoma
SR leukemia = tested on: SR leukemia
RXF 393 renal = tested on: RXF 393 renal
HOP-92 NSCLC = tested on: HOP-92 NSCLC
KM12 colon = tested on: KM12 colon
HT29 colon = tested on: HT29 colon
ACHN renal = tested on: ACHN renal

CN(C)CC1C(=O)O[C@H]2[C@H]1CC/C(COC(=O)c1cc3ccccc3[nH]1)=C\CC[C@@]1(C)O[C@@H]21 (stereo not given in full)
GI50 (BT-549 breast): 1.66 µM
TGI (BT-549 breast): 4.48 µM
GI50 (K-562 leukemia): 1.14 µM
TGI (K-562 leukemia): 6.11 µM
GI50 (OVCAR-8 ovarian): 2.13 µM
TGI (OVCAR-8 ovarian): 7.48 µM
GI50 (SK-MEL-2 melanoma): 1.98 µM
TGI (SK-MEL-2 melanoma): 5.51 µM
GI50 (SR leukemia): 1.55 µM
TGI (SR leukemia): 9.89 µM
GI50 (RXF 393 renal): 1.4 µM
TGI (RXF 393 renal): 2.89 µM
GI50 (HOP-92 NSCLC): 1.53 µM
TGI (HOP-92 NSCLC): 3.62 µM
GI50 (KM12 colon): 3.23 µM
TGI (KM12 colon): 10.8 µM
GI50 (HT29 colon): 0.671 µM
TGI (HT29 colon): 2.57 µM
GI50 (ACHN renal): 0.923 µM
TGI (ACHN renal): 2.48 µM

COc1cc(Cl)cc(-c2nn(-c3cccc(NC(=O)Nc4cc(C(F)(F)F)cc(C(F)(F)F)c4)c3)cc2-c2ccncc2)c1
GI50 (BT-549 breast): 2.34 µM
TGI (BT-549 breast): 6.78 µM
GI50 (K-562 leukemia): 0.339 µM
TGI (K-562 leukemia): 8.09 µM
GI50 (OVCAR-8 ovarian): 0.39 µM
TGI (OVCAR-8 ovarian): 2.46 µM
GI50 (SK-MEL-2 melanoma): 0.454 µM
TGI (SK-MEL-2 melanoma): 1.91 µM
GI50 (SR leukemia): 0.439 µM
TGI (SR leukemia): 3.51 µM
GI50 (RXF 393 renal): 1.38 µM
TGI (RXF 393 renal): 4.09 µM
GI50 (HOP-92 NSCLC): 0.228 µM
TGI (HOP-92 NSCLC): 0.783 µM
GI50 (KM12 colon): 0.447 µM
TGI (KM12 colon): 2.77 µM
GI50 (HT29 colon): 0.443 µM
TGI (HT29 colon): 2.38 µM
GI50 (ACHN renal): 0.401 µM
TGI (ACHN renal): 12.7 µM
